Experimental data as given in BindingDB's records for doi:10.1016/j.ejmech.2010.03.048 (2010).

Target: Sigma non-opioid intracellular receptor 1 (Cavia porcellus, UniProt Q60492)
Assay: Displacement of [3H](+)-pentazocine from sigma 1 receptor in guinea pig brain membrane

Chain of Sigma non-opioid intracellular receptor 1 (Q60492 whole entry): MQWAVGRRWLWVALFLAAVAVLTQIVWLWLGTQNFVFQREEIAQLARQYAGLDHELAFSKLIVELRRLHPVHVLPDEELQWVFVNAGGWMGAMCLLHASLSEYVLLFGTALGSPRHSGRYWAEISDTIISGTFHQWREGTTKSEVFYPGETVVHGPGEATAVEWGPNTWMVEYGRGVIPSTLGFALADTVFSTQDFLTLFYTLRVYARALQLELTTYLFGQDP

Compound | Ki
OCC[C@H]1Cc2ccccc2C2(CCN(CCCc3ccccc3)CC2)O1 [(R)-2-(1'-(3-phenylpropyl)spiro[isochroman-1,4'-piperidine]-3-yl)ethanol] | 68 nM
OCC[C@H]1Cc2ccccc2C2(CCN(CC3CCCCC3)CC2)O1 [(R)-2-(1'-(cyclohexylmethyl)spiro[isochroman-1,4'-piperidine]-3-yl)ethanol] | 9 nM
OCC[C@H]1Cc2ccccc2C2(CCN(Cc3ccccc3)CC2)O1 [(R)-2-(1'-benzylspiro[isochroman-1,4'-piperidine]-3-yl)ethanol] | 48 nM
OCC[C@@H]1Cc2ccccc2C2(CCN(Cc3ccccc3)CC2)O1 [(S)-2-(1'-benzylspiro[isochroman-1,4'-piperidine]-3-yl)ethanol] | 10 nM
